In ChEMBL document CHEMBL6109121, “Discovery of Novel Sulfonylurea NLRP3 Inflammasome Inhibitor for the Treatment of Multiple Inflammatory Diseases” (J Med Chem, 2025):
Active and inactive are the calls of the source. No cut-off for these calls is given here.

How the values were obtained:
[1] = tested on: Mus musculus; assay: (§1) Antidiabetic activity in HFD-fed STZ-induced diabetic kidney disease male C57BL/6J mouse model assessed as reduction in glomerular thickening in kidney at 20 mg/kg fed with high fat diet for 4 weeks followed by STZ administration for 5 days and measured 6 weeks post compound administration via gavage by histological analysis; assay type: functional, organism-based
[2] = target: NACHT, LRR and PYD domains-containing protein 3 (Mus musculus) (UniProt Q8R4B8); assay: In vivo inhibition of NLRP3 inflammasome activation in DSS-induced acute ulcerative colitis male C57BL/6J mouse model assessed as reduction in IL-1beta level in colon at 0.2 to 5 mg/kg, po preadministered with DSS for 7 days followed by 3 days of drinking water and measured after 10 days of compound administration by ELISA; assay type: functional, organism-based; details: dose 0.2-5 mg/kg, time 10.0 day
[3] = tested on: Mus musculus; assay: Effect on TNF-alpha level in serum of HFD-fed STZ-induced diabetic kidney disease male C57BL/6J mouse model at 20 mg/kg fed with high fat diet for 4 weeks followed by STZ administration for 5 days and measured 6 weeks post compound administration via gavage by ELISA; assay type: functional, organism-based
[4] = Cmax in male ICR (CD-1) mouse at 20 mg/kg, po by LC-MS/MS analysis; assay type: ADME, organism-based; details: in vivo
[5] = Oral bioavailability in male ICR (CD-1) mouse at 20 mg/kg by LC-MS/MS analysis; assay type: ADME, organism-based; details: in vivo
[6] = Half-life in male ICR (CD-1) mouse at 20 mg/kg, po by LC-MS/MS analysis; assay type: ADME, organism-based; details: in vivo
[7] = AUClast in male ICR (CD-1) mouse at 20 mg/kg, po by LC-MS/MS analysis; assay type: ADME, organism-based; details: in vivo
[8] = tested on: Mus musculus; assay: (§2) Anti-colitis activity in DSS-induced acute ulcerative colitis male C57BL/6J mouse model assessed as increase in colon length at 0.2 to 5 mg/kg, po preadministered with DSS for 7 days followed by 3 days of drinking water and measured after 10 days of compound administration; assay type: functional, organism-based; details: dose 0.2-5 mg/kg, time 10.0 day
[9] = tested on: Mus musculus; assay: as §1, with “as decrease” for “as reduction”, “in IL-1beta level” for “in glomerular thickening”, “in serum” for “in kidney”, “by ELISA” for “by histological analysis”; assay type: functional, organism-based
[10] = tested on: Mus musculus; assay: Antidiabetic activity in HFD-fed STZ-induced diabetic kidney disease male C57BL/6J mouse model assessed as improvement of glucose tolerance at 20 mg/kg fed with high fat diet for 4 weeks followed by STZ administration for 5 days further administered with compound via gavage for 6 weeks and measured after 120 mins of glucose administration by OGTT; assay type: functional, organism-based; details: time 60600.0 min
[11] = tested on: Mus musculus; assay: as §1, with “urine albumin-to-creatinine ratio” for “glomerular thickening in kidney”, “gavage” for “gavage by histological analysis”; assay type: functional, organism-based
[12] = Tmax in male ICR (CD-1) mouse at 20 mg/kg, po by LC-MS/MS analysis; assay type: ADME, organism-based; details: in vivo
[13] = target: NACHT, LRR and PYD domains-containing protein 3 (Mus musculus) (UniProt Q8R4B8); assay: In vivo inhibition of NLRP3 inflammasome activation in LPS/ATP-induced acute peritonitis male C57BL/6J mouse model assessed as reduction in IL-1beta level in serum preadministered orally with compound for 1 hrs followed by LPS addition for 2 hrs and measured 12 hrs post ATP administration by ELISA; assay type: functional, organism-based; details: dose 1-20 mg/kg, route po, time 13.0 hrs
[14] = Drug uptake in heart of male C57BL/6J mouse at 20 mg/kg, po administered as single dose and measured after 8 hrs by LC-MS/MS analysis; assay type: ADME, organism-based; details: in vivo
[15] = tested on: Mus musculus; assay: Anti-inflammatory activity in LPS/ATP-induced acute peritonitis male C57BL/6J mouse model assessed as survival rate at 1 mg/kg, po preadministered with compound for 1 hrs followed by LPS addition for 2 hrs and further administered with ATP and measured 21 hrs post LPS administration relative to control; assay type: functional; details: time 22 hrs
[16] = Drug uptake in brain of male C57BL/6J mouse at 20 mg/kg, po administered as single dose and measured after 8 hrs by LC-MS/MS analysis; assay type: ADME, organism-based; details: in vivo
[17] = Cytotoxicity against male C57BL/6J mouse BMDM cells; assay type: functional
[18] = Inhibition of NLRP3 inflammasome activation in LPS/ATP-stimulated male C57BL/6J mouse BMDM cells assessed as inhibition of IL-1beta secretion […] for 4 hrs followed by compound administration for 30 mins and measured after 1 hrs of ATP addition by ELISA; assay type: cell-based
[19] = tested on: Mus musculus; assay: as §2, with “reduction in infiltration of inflammatory cells” for “increase”, “colon” for “colon length”, “administration by H and E staining based analysis” for “administration”; assay type: functional, organism-based; details: dose 0.2-5 mg/kg, time 10.0 day
[20] = target: T1, Nlrp3/Pycard (Mus musculus) (UniProt Q8R4B8+Q9EPB4); assay: In vivo inhibition of NLRP3-ASC protein-protein interaction in HFD-fed STZ-induced diabetic kidney disease male C57BL/6J mouse model at 20 mg/kg fed with high fat diet for 4 weeks followed by STZ administration for 5 days and measured 6 weeks post compound administration via gavage by co-immunoprecipitation based Western blot analysis; assay type: functional, organism-based
[21] = Inhibition of NLRP3 inflammasome activation in human THP-1 cells assessed as inhibition of IL-1beta release; assay type: cell-based
[22] = tested on: Mus musculus; assay: Antidiabetic activity in HFD-fed STZ-induced diabetic kidney disease male C57BL/6J mouse model assessed as reduction in LDL-C level in serum at 20 mg/kg fed with high fat diet for 4 weeks followed by STZ administration for 5 days and measured 6 weeks post compound administration via gavage; assay type: functional, organism-based
[23] = tested on: Mus musculus; assay: Anti-colitis activity in DSS-induced acute ulcerative colitis male C57BL/6J mouse model assessed as reduction in fecal bleeding at 0.2 to 5 mg/kg, po preadministered with DSS for 7 days followed by 3 days of drinking water and measured after 10 days of compound administration; assay type: functional, organism-based; details: dose 0.2-5 mg/kg, time 10.0 day
[24] = tested on: Mus musculus; assay: as §1, with “tubular basement membrane” for “glomerular”; assay type: functional, organism-based
[25] = tested on: Mus musculus; assay: as §1, with “macrophage infiltration” for “glomerular thickening”, “F4/80 immunostaining based” for “histological”; assay type: functional, organism-based
[26] = target: T1, Nlrp3/Pycard (Mus musculus); assay: Inhibition of NLRP3-ASC protein-protein interaction in LPS/ATP stimulated male C57BL/6J mouse BMDM cells by co-immunoprecipitation based Western blot analysis; assay type: cell-based
[27] = tested on: Mus musculus; assay: as §2, with “reduction in disruption of mucosal barrier” for “increase”, “colon” for “colon length”, “administration by H and E staining based analysis” for “administration”; assay type: functional, organism-based; details: dose 0.2-5 mg/kg, time 10.0 day
[28] = tested on: BMDM; assay: Inhibition of NLRC4 inflammasome activation in LPS/flagellin-stimulated male C57BL/6J mouse BMDM cells assessed as inhibition of IL-1beta secretion pretreated with LPS followed by compound addition for 4 hrs and measured after 2 hrs of Salmonella typhimurium flagellin addition by ELISA; assay type: cell-based; details: time 6.0 hrs
[29] = tested on: BMDM; assay: Inhibition of NLRP3 inflammasome activation at initiation phase in LPS/ATP-stimulated male C57BL/6J mouse BMDM cells assessed as inhibition of IL6 secretion […] for 4 hrs followed by compound administration for 30 mins and measured after 1 hrs of ATP addition by ELISA; assay type: cell-based; details: time 1.5 hrs
[30] = tested on: Mus musculus; assay: Effect on TNF-alpha level in serum of LPS/ATP-induced acute peritonitis male C57BL/6J mouse model at 1 to 20 mg/kg, po preadministered with compound for 1 hrs followed by LPS addition for 2 hrs and measured 12 hrs post ATP administration by ELISA; assay type: functional, organism-based; details: dose 1-20 mg/kg, time 13.0 hrs
[31] = tested on: Mus musculus; assay: as §2, with “reduction in crypt necrosis” for “increase”, “colon” for “colon length”, “administration by H and E staining based analysis” for “administration”; assay type: functional, organism-based; details: dose 0.2-5 mg/kg, time 10.0 day
[32] = Drug uptake in gastrointestinal tract of male C57BL/6J mouse at 20 mg/kg, po administered as single dose and measured after 8 hrs by LC-MS/MS analysis; assay type: ADME, organism-based; details: in vivo

T1 sequence (Q8R4B8 whole entry, looked up): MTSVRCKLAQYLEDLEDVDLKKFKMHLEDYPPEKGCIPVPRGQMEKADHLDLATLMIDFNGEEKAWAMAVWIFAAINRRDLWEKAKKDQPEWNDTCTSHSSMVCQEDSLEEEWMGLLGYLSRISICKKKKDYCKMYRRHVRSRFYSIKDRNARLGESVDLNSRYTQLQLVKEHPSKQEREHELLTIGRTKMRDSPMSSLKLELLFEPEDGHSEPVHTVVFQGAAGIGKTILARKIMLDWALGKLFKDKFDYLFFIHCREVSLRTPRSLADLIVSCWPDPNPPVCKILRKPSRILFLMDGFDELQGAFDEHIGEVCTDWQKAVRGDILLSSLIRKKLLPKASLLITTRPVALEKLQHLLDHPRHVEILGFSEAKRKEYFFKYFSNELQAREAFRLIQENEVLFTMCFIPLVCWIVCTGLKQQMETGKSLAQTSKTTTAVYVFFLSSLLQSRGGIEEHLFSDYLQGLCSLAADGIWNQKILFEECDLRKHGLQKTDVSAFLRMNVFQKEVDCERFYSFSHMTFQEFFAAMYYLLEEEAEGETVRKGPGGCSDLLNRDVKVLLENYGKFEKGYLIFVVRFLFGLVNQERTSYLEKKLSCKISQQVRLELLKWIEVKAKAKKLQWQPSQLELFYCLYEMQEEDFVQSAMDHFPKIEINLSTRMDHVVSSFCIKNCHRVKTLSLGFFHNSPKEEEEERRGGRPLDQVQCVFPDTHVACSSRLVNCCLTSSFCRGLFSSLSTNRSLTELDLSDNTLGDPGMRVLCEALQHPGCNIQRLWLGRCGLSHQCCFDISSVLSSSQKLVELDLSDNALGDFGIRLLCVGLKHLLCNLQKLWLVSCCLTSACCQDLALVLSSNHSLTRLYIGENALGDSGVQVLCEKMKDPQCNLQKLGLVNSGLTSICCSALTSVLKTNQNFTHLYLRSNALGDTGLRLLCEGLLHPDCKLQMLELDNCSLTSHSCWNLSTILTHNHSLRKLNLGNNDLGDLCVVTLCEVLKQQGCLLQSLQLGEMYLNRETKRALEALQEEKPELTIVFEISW
T1 sequence (Q9EPB4 whole entry, looked up): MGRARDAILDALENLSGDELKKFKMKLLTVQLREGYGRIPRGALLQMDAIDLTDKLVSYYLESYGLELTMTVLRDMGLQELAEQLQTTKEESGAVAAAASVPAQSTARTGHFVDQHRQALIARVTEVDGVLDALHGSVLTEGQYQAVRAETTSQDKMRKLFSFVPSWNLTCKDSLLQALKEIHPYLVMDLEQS
Sequence of NACHT, LRR and PYD domains-containing protein 3 (Mus musculus) (Q8R4B8 whole entry, the tested form may be a part): as the sequence (Q8R4B8 whole entry, looked up) above

CN1CCC(N(C)S(=O)(=O)NC(=O)Nc2c3c(cc4c2CCC4)CCC3)CC1
Activity [1]: Active | inhibition [2]: Active | Activity [3]: inactive | Cmax [4]: 35500 ng/mL | bioavailability [5]: 99.6% | half-life [6]: 2.7 h | AUC(0-t) [7]: 57900 ng·h/mL | Activity [8]: inactive | Activity [9]: Active | Activity [10]: inactive | Activity [11]: Active | Tmax [12]: 0.33 h | inhibition [13]: Dose-dependent-effect | Drug uptake [14]: Active | survival at 1 mg/kg [15]: 75% | Drug uptake [16]: Not_active | CC50 [17]: > 100000 nM | IC50 [18]: 106 nM | Activity [19]: Active | inhibition [20]: Active | IC50 [21]: 23 nM | Activity [22]: Active | Activity [23]: Active | Activity [24]: Active | Activity [25]: Active | inhibition [26]: Active | Activity [27]: Active | inhibition [28]: inactive | inhibition [29]: inactive | Activity [30]: inactive | Activity [31]: Active | Drug uptake [32]: Active
